# Measurements as given in US7094781B2, “Sulfamides and their use as endothelin receptor antagonists” (Actelion Pharmaceuticals Ltd., priority 2000, dated 2006).
# Like-named read-outs stand apart in the source and are kept apart here.
# How the values were obtained:
# [1] = biological target: T1, ETA receptors (rat aortic rings) (Rattus norvegicus, UniProt P26684); assay: Inhibition of endothelin-1-induced contraction on isolated rat aortic rings
# T1 construct: The thoracic aorta or trachea were excised, dissected and cut in 3–5 mm rings; from tissue; host or cells: thoracic aorta rings of adult Wistar rats, endothelium removed
# T1 sequence (P26684 21-426): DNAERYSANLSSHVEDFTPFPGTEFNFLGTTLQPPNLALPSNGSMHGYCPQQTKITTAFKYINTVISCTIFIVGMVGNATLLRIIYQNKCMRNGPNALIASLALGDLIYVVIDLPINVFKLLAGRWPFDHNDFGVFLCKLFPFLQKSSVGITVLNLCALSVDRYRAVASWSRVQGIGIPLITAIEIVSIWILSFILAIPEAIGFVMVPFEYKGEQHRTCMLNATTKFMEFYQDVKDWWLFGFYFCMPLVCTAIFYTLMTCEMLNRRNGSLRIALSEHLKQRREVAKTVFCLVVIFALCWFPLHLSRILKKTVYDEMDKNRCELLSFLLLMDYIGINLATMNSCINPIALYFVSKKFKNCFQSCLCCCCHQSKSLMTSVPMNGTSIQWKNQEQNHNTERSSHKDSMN
# Experimental: (§1) 2) Inhibition of Endothelin-induced Contractions on Isolated Rat Aortic Rings (ETA Receptors) and Rat Tracheal Rings (ETB Receptors):
# (§2) The functional inhibitory potency of the endothelin antagonists was assessed by their inhibition of the contraction induced by endothelin-1 on rat aortic rings (ETA receptors) and of the contraction induced by sarafotoxin S6c on rat tracheal rings (ETB receptors). Adult Wistar rats were anesthetized and exsanguinated. The thoracic aorta or trachea were excised, dissected and cut in 3–5 mm rings. The endothelium/epithelium was removed by gentle rubbing of the intimal surface. […] The rings were connected to force transducers and isometric tension was recorded (EMKA Technologies SA, Paris, France). The rings were stretched to a resting tension of 3 g (aorta) or 2 g (trachea). […] The functional inhibitory potency of the test compound was assessed by calculating the concentration ratio, i.e. the shift to the right of the EC50 induced by different concentrations of test compound. EC50 is the concentration of endothelin needed to get a half-maximal contraction, pA2 is the negative logarithm of the antagonist concentration which induces a two-fold shift in the EC50 value.
# [2] = biological target: T2, human recombinant ETB receptor (Homo sapiens, UniProt P24530); assay: Inhibition of [125I]ET-1 binding to membranes from CHO cells carrying human ETB receptors
# T2 construct: expressed in transfected cells; host or cells: CHO cells (microsomal membranes)
# T2 sequence (P24530 27-442): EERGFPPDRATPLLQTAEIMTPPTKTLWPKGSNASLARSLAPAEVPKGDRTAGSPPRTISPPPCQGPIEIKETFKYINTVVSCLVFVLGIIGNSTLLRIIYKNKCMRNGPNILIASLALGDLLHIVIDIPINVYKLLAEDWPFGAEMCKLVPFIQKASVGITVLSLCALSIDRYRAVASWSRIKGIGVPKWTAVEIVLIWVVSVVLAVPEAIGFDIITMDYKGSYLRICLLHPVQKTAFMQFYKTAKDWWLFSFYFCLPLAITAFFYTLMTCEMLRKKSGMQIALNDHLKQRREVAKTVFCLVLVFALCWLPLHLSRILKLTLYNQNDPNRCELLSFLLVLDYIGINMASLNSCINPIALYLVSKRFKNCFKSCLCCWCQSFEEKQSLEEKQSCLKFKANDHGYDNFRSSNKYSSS
# [3] = biological target: T3, human recombinant ETA receptor (Homo sapiens, UniProt P25101); assay: Inhibition of [125I]ET-1 binding to membranes from CHO cells carrying human ETA receptors
# T3 construct: expressed in transfected cells; host or cells: CHO cells (microsomal membranes)
# T3 sequence (P25101 21-427): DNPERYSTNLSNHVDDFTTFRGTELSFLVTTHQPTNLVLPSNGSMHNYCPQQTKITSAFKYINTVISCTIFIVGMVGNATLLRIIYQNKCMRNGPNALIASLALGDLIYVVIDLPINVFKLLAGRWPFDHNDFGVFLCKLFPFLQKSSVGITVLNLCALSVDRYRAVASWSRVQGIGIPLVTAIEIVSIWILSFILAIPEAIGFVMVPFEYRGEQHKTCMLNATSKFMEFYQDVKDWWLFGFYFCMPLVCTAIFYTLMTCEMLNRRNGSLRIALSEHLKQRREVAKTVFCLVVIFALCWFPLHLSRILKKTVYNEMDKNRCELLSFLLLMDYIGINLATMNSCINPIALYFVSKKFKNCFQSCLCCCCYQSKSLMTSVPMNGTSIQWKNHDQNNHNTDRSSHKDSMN
# [4] = biological target: T4, ETB receptors (rat tracheal rings) (Rattus norvegicus, UniProt P21451); assay: Inhibition of sarafotoxin S6c-induced contraction on isolated rat tracheal rings; conditions: rat tracheal rings, contraction induced by sarafotoxin S6c, 10 min incubation; read-out: pA2 value ETB (converted)
# T4 construct: The thoracic aorta or trachea were excised, dissected and cut in 3–5 mm rings; from tissue; host or cells: tracheal rings of adult Wistar rats, epithelium removed
# T4 sequence (P21451 27-442): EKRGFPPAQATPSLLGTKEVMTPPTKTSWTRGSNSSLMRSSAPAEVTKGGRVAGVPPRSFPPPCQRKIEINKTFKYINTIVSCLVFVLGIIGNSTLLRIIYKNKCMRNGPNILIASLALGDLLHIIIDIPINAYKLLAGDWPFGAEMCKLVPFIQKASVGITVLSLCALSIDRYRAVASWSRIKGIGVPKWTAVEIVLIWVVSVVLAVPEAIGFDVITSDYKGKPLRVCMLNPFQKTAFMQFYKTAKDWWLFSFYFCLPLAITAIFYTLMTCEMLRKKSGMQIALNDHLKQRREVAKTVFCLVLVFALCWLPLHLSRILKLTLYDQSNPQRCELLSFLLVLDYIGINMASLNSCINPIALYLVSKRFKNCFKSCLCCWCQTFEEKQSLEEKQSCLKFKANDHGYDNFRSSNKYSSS
# Experimental: as §1, §2
# [5] = read-out: pA2 value ETA (converted)
SMILES,Kb [1] [nM],IC50 [2] [nM],IC50 [3] [nM],"Kb [1, 5] [nM]",Kb [4] [nM]
COc1ccccc1Oc1c(NS(=O)(=O)NCc2ccccc2)nc(-c2ncccn2)nc1OCCOC(=O)Nc1ccccn1 [Example 41],4.27,41.6,3.2,–,–
O=S(=O)(NCc1cccs1)Nc1ncnc(OCCOc2ncc(Br)cn2)c1-c1ccc(Cl)cc1 [Example 20],61.7,1720,4.9,–,–
COc1ccc(CNS(=O)(=O)Nc2nc(-c3ncccn3)nc(OC)c2Oc2ccccc2OC)cc1 [Example 51],–,306,13.4,282,–
COc1ccc(CNS(=O)(=O)Nc2nc(-c3ccncc3)nc(OC)c2Oc2ccccc2OC)cc1 [Example 161],513,> 1000,6.2,–,–
"COc1ccccc1Oc1c(NS(=O)(=O)NCc2ccccc2)nc(SC)nc1OCCO [Example 203, benzylsulfamic acid [6-(2-hydroxy-ethoxy)-5-(2-methoxy-phenoxy)-2-methylsulfanyl-pyrimidin-4-yl]-amide]",–,–,–,20.4,1450
O=S(=O)(NCc1ccccc1)Nc1ncnc(OCCOc2ncc(Br)cn2)c1-c1ccc(Br)cc1 [Example 100],–,–,0.76,3.63,–
Cc1ccc(-c2c(NS(=O)(=O)NCC3CC3)ncnc2OCCOc2ncc(Br)cn2)cc1 [Example 119],41.7,> 1000,4.2,–,–
COc1ccccc1Oc1c(NS(=O)(=O)NCc2ccccc2)nc(-c2ncccn2)nc1OCCOc1ncc(Br)cn1 [Example 37],–,–,16,14.8,–
Cc1ccc(-c2c(NS(=O)(=O)NCc3ccccc3)nc(-c3ccncc3)nc2OCCOc2ncc(Br)cn2)cc1 [Example 32],–,864,3.5,1.78,–
COc1ccccc1Oc1c(NS(=O)(=O)NCC2CCCCC2)nc(-c2ncccn2)nc1OCCOc1ncc(Br)cn1 [Example 133],19.1,212,1.7,–,–
CSc1cnc(OCCOc2ncnc(NS(=O)(=O)NCc3ccc4c(c3)OCO4)c2-c2ccc(C)cc2)nc1 [Example 147],–,408,1.2,–,–
"O=S(=O)(NCc1ccccc1)Nc1ncnc(OCCOc2ncc(Br)cn2)c1-c1ccc(Cl)cc1 [Example 14, benzyl sulfamic acid-[6-[2-(5-bromo-pyrimidin-2-yloxy)-ethoxy]-5-(4-chlorophenyl)-4-pyrimidinyl]-amide]",–,–,5.6,3.98,–
COc1cnc(OCCOc2ncnc(NS(=O)(=O)NCc3ccccc3)c2-c2ccc(Br)cc2)nc1 [Example 101],–,335,1.24,–,–
"C#CCOc1nc(-c2ccnc(-c3nnn[nH]3)c2)nc(NS(=O)(=O)NCc2ccccc2)c1Oc1ccccc1OC [Example 210, Benzylsulfamic acid [5-(2-methoxy-phenoxy)-6-prop-2-ynyloxy-2-[2-(1H-tetrazol-5-yl)-pyridin-4-yl]-pyrimidin-4-yl]-amide]",–,936,23,–,–
COc1ccccc1Oc1c(NS(=O)(=O)NCc2ccccn2)nc(-c2ncccn2)nc1OCCOc1ncc(SC)cn1 [Example 155],–,173,5.8,–,–
COc1ccc(CNS(=O)(=O)Nc2ncnc(OCCOc3ncc(OC)cn3)c2Oc2cc(OC)ccc2Cl)cc1 [Example 164],–,81,1,–,–
CN(Cc1ccccc1)S(=O)(=O)Nc1ncnc(OCCOc2ncc(Br)cn2)c1-c1ccc(Cl)cc1 [Example 193],–,> 1000,3.6,–,–
COc1ccccc1Oc1c(NS(=O)(=O)NCc2ccccc2)nc(-c2ncccn2)nc1OCCOC(=O)Nc1cnccn1 [Example 42],–,146,3.5,–,–

SMILES,Kb [1] [nM],IC50 [2] [nM],IC50 [3] [nM],"Kb [1, 5] [nM]",Kb [4] [nM]
COc1ccc(Cl)c(Oc2c(NS(=O)(=O)NCc3ccc4c(c3)OCO4)ncnc2OCCOc2ncc(Br)cn2)c1 [Example 151],–,57,0.77,–,–
CCNS(=O)(=O)Nc1ncnc(OCCOc2ncc(SC)cn2)c1-c1ccc(Cl)cc1 [Example 116],–,567,1.3,–,–
COc1ccc(CNS(=O)(=O)Nc2nc(-c3ncccn3)nc(OCCOc3ncccn3)c2Oc2ccccc2OC)cc1OC [Example 167],–,6.4,5.2,–,–
COc1cnc(OCCOc2ncnc(NS(=O)(=O)NCc3cccs3)c2-c2ccc(Cl)cc2)nc1 [Example 21],–,1000,7,–,–
COc1ccccc1Oc1c(NS(=O)(=O)NCc2ccccc2)nc(-c2ccncc2)nc1OCCOc1ncc(SC)cn1 [Example 74],–,164,1.8,–,–
"COc1ccc(Cl)c(Oc2c(NS(=O)(=O)NCc3ccccc3)ncnc2OCCOc2ncc(SC)cn2)c1 [Example 213, Benzylsulfamic acid [6-[2-(5-methylsulfanyl-pyrimidin-2-yloxy)-ethoxy]-5-(2-chloro-5-methoxy-phenoxy)-pyrimidin-4-yl]-amide]",–,347,1.32,–,–
COc1cnc(OCCOc2nc(-c3ncccn3)nc(NS(=O)(=O)NCC3CCCCC3)c2Oc2ccccc2OC)nc1 [Example 134],–,187,2.4,–,–
COc1ccccc1CNS(=O)(=O)Nc1nc(-c2ncccn2)nc(OCCOC(=O)Nc2ccccc2)c1Oc1ccccc1OC [Example 176],–,22,2.5,–,–
COc1ccccc1CNS(=O)(=O)Nc1nc(-c2ncccn2)nc(OCCOc2ncc(Br)cn2)c1Oc1ccccc1OC [Example 174],–,93,3.7,–,–
"COc1ccccc1Oc1c(NS(=O)(=O)Nc2ccc(C(C)C)cc2)nc(-c2ccncc2)nc1OCCOc1ncc(Br)cn1 [Example 5, 4-i-propyl-phenyl sulfamic acid-[6-[2-(5-bromo-pyrimidin-2-yloxy)-ethoxy]-5-(o-methoxy-phenoxy)-2-(4-pyridyl)-pyrimidin-4-yl]-amide]",–,1280,28,224,–
CSc1cnc(OCCOc2ncnc(NS(=O)(=O)NCC3CC3)c2-c2ccc(Br)cc2)nc1 [Example 108],–,56,0.28,–,–
COc1ccccc1Oc1c(NS(=O)(=O)NCc2ccccc2)nc(-c2ncccn2)nc1OCCOC(=O)Nc1ccccc1 [Example 43],–,214,6.8,–,–
COc1ccc(CNS(=O)(=O)Nc2nc(-c3ncccn3)nc(OCCOC(=O)Nc3ccccn3)c2Oc2ccccc2OC)cc1 [Example 50],–,7.5,0.87,–,–
COc1cnc(OCCOc2nc(-c3ncccn3)nc(NS(=O)(=O)NCc3ccc(F)cc3)c2Oc2ccccc2OC)nc1 [Example 143],–,35,3.1,–,–
COc1ccccc1Oc1c(NS(=O)(=O)NCc2ccccn2)nc(-c2ccncc2)nc1OCCOc1ncc(SC)cn1 [Example 158],–,80,10,–,–
CSc1cnc(OCCOc2nc(-c3ccncc3)nc(NS(=O)(=O)NCc3ccccc3)c2-c2ccc(C)cc2)nc1 [Example 33],–,609,3.7,–,–
COc1ccccc1Oc1c(NS(=O)(=O)NCc2ccco2)nc(-c2ncccn2)nc1OCCOC(=O)Nc1cnccn1 [Example 61],–,200,1.6,–,–
COc1ccccc1Oc1c(NS(=O)(=O)NCC2CC2)nc(-c2ccncc2)nc1OCCOc1ncc(Br)cn1 [Example 123],–,124,2.9,–,–
